{"source": "ChEMBL document CHEMBL1201862", "about": "“PubChem BioAssay data set” (2004)", "key": {"[1]": {"target": "Luciferin 4-monooxygenase (Photinus pyralis, UniProt P08659)", "sequence (P08659 whole entry)": "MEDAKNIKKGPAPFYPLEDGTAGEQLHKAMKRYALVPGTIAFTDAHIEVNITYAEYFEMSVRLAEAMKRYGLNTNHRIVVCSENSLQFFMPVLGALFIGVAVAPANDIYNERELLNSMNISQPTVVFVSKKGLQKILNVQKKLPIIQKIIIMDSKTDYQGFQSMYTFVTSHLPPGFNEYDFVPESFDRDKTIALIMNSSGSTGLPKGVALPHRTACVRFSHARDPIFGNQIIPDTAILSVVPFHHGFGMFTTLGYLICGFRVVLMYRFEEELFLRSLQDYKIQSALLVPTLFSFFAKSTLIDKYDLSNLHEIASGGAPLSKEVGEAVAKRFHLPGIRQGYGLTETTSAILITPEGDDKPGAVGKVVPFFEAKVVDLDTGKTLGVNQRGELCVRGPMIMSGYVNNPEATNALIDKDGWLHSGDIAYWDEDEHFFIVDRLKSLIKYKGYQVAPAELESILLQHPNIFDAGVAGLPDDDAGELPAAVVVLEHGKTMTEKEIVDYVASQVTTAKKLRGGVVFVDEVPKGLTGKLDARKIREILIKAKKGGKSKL", "experiment": "inhibition of purified Photinus pyralis luciferase – biochemical, luminescence, dose response (AID 1891)"}, "[2]": {"experiment": "microbe, parasite or virus in culture", "assay_type": "functional", "conditions": "Mycobacterium tuberculosis"}, "[3]": {"experiment": "Luminescence Cell-Based Dose Confirmation HTS to Identify Inhibitors of Platelet Dense Granule Release. [Related pubchem assays: 1663 (Primary HTS), 1678 (Summary of Project)]", "assay_type": "functional"}, "[4]": {"target": "T1, Neuropeptide Y receptor type 2 (Homo sapiens, UniProt P49146)", "T1 sequence (P49146 whole entry)": "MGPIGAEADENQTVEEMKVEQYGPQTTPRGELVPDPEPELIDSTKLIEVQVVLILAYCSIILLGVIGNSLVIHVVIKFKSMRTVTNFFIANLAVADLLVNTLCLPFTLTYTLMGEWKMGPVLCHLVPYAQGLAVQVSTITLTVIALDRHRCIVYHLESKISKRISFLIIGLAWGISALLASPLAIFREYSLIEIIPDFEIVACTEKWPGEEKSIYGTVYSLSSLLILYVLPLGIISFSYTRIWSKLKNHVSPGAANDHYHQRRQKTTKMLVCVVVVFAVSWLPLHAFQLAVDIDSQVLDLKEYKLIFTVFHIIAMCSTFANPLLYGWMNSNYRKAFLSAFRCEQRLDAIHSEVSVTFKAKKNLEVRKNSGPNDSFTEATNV", "assay_type": "functional, cell-based"}, "[5]": {"target": "T2, Neuropeptide Y receptor type 1 (Homo sapiens, UniProt P25929)", "T2 sequence (P25929 whole entry)": "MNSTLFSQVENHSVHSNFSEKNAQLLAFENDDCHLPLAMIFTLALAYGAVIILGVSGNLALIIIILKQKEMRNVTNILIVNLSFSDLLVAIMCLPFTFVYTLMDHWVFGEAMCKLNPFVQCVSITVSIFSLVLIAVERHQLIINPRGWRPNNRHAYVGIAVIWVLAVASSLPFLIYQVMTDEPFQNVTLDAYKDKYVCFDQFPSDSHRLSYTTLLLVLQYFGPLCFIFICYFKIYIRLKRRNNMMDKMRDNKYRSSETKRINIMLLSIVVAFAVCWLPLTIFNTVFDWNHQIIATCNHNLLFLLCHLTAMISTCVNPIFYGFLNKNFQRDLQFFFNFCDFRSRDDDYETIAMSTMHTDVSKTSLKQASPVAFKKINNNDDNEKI", "assay_type": "functional"}, "[6]": {"target": "T3, Cytochrome P450 3A4 (Homo sapiens, UniProt P08684)", "T3 sequence (P08684 whole entry)": "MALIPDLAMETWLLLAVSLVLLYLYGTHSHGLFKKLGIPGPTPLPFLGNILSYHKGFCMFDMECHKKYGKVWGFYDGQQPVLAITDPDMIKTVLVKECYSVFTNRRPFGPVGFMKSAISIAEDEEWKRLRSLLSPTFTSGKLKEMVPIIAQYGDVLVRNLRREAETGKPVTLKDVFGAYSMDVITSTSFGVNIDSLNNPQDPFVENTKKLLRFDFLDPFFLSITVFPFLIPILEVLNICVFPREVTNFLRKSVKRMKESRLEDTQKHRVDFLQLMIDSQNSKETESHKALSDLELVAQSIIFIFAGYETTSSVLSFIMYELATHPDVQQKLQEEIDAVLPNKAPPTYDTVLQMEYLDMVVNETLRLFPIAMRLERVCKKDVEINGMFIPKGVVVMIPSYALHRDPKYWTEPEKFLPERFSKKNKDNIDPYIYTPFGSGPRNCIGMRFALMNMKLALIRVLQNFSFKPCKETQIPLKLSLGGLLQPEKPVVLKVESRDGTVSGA", "conditions": "Potency"}, "[7]": {"target": "Neurotensin receptor type 1 (Homo sapiens, UniProt P30989)", "sequence (P30989 whole entry)": "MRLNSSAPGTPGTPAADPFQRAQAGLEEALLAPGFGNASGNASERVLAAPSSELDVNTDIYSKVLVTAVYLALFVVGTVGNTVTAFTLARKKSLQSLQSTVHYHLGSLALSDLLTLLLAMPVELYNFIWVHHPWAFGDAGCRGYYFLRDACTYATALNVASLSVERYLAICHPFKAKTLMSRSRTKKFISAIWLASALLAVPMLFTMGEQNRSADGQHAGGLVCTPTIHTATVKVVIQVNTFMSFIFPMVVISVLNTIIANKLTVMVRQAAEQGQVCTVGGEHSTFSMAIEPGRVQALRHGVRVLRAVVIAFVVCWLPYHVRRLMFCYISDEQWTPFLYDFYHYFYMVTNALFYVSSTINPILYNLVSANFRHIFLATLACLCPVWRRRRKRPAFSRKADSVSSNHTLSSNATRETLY", "assay_type": "functional"}, "[8]": {"experiment": "A Cell Based Secondary Assay To Explore Cytotoxicity of Compounds that Sensitize Mycobacterium Tuberculosis to Beta-Lactam Antibiotics.", "assay_type": "functional"}, "[9]": {"experiment": "non-specific 3'UTR reporter inhibition in Clone20-Shn3RL – cell-based, Renilla luciferase, cherry-picked, counter-screen for Shn3 inhibitor project, dose response (AID 624133)", "assay_type": "functional"}, "[10]": {"experiment": "Luminescence Cell-Based Dose Response HTS to Identify Inhibitors of 5'UTR Stem-Loop Driven Prion Protein mRNA Translation in H4 Neuroglioblastoma Cells. [Related pubchem assays: 1827 (Project Summary), 1813 (Primary HTS)]", "assay_type": "functional"}, "[11]": {"system": "BJ", "experiment": "BJ-TERT-LT-ST fibroblast viability loss – cell-based, RAS-independent, luminescence, dose response (AID 1935);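 also: BJ fibroblasts immortalized with TERT plus LT and ST oncogenes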", "assay_type": "functional", "conditions": "Homo sapiens"}, "[12]": {"experiment": "DRD fibroblast viability loss – cell-based, non-viral oncogenic, luminescence, dose response (AID 1934)", "assay_type": "functional", "conditions": "Homo sapiens"}, "[13]": {"experiment": "THP-1 cell cytotoxicity, dose response, cytotoxicity control for non-replicating M. tuberculosis project (AID 489025)", "assay_type": "functional"}, "[14]": {"target": "T3, Cytochrome P450 3A4"}, "[15]": {"target": "T4, Heat shock factor protein 1 (Mus musculus, UniProt P38532)", "T4 sequence (P38532 whole entry)": "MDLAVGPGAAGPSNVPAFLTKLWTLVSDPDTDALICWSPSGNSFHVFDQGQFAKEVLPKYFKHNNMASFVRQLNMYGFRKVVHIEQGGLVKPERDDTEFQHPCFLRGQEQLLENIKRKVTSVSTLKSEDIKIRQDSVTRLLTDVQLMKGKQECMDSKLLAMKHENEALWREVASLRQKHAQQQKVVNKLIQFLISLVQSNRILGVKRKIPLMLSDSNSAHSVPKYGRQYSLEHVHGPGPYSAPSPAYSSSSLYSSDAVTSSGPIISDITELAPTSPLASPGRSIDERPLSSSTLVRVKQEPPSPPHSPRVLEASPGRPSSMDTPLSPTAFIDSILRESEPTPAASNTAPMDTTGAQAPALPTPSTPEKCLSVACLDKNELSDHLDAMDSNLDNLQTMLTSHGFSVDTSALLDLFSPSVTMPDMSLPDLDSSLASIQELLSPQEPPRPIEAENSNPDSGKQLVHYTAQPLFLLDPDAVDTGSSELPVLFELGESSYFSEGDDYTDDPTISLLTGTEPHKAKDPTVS", "experiment": "enhancement of HSF1-driven luciferase signal – cell-based, NIH3T3, luminescence, dose retest, confirmation (AID 435004);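 also: stress induced by proteasome inhibitor MG132 added 30 min after compound; actives raise luminescence as potentiators of the MG132 stress response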", "assay_type": "functional"}, "[16]": {"experiment": "cells", "assay_type": "functional"}, "[17]": {"experiment": "reduction of Shn3 3'UTR-driven luciferase in osteoblasts – cell-based, Clone20 osteoblasts, firefly luciferase, cherry-picked, dose response (AID 624132)", "assay_type": "functional"}, "[18]": {"system": "INS1", "experiment": "INS-1E survival protection against cytokine death – cell-based, luminescence, retest, dose response (AID 449756);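 also: cell death triggered by IL-1 beta plus TNF-alpha plus IFN-gamma mixture; protective hits raise ATP signal compared with cytokine alone wells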", "assay_type": "functional", "conditions": "Rattus norvegicus"}, "[19]": {"target": "Heat shock protein HSP 90-alpha (Homo sapiens, UniProt P07900)", "assay_type": "functional, organism-based"}, "[20]": {"system": "BJ", "experiment": "growth inhibition of engineered Ras-driven BJ cells – cell-based, alamar blue fluorescence, cherrypicked samples, dose response (AID 2631)", "assay_type": "functional", "conditions": "Homo sapiens"}, "[21]": {"system": "BJ", "experiment": "BJ-TERT fibroblast viability loss – cell-based, RAS-independent, luminescence, dose response (AID 1933)", "assay_type": "functional", "conditions": "Homo sapiens"}, "[22]": {"experiment": "HepG2 cell cytotoxicity, dose response, cytotoxicity control for non-replicating M. tuberculosis project (AID 489018)", "assay_type": "functional", "conditions": "Mycobacterium tuberculosis"}, "[23]": {"experiment": "viability of PTEN-deleted HCT116 cells – cell-based, HCT116 PTEN knockout, dose response (AID 1047);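 also: HCT116 colon tumor cells with PTEN knocked out; cells exposed to compound for 60 hours before readout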", "assay_type": "functional"}, "[24]": {"experiment": "viability of HCT116 lacking mutant beta-catenin – cell-based, human colon tumor, dose response (AID 1045);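 also: HCT116 colon tumor cells with beta catenin knocked out; cells exposed to compound for 60 hours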", "assay_type": "functional"}, "[25]": {"experiment": "loss of viability in HepG2 cells – cell-based, CellTiter-Glo, cherry-picked, cytotoxicity control for Shn3 inhibitor project, dose response (AID 624134)", "assay_type": "functional"}, "[26]": {"target": "Cytochrome P450 2D6 (Homo sapiens, UniProt P10635)", "sequence (P10635 whole entry)": "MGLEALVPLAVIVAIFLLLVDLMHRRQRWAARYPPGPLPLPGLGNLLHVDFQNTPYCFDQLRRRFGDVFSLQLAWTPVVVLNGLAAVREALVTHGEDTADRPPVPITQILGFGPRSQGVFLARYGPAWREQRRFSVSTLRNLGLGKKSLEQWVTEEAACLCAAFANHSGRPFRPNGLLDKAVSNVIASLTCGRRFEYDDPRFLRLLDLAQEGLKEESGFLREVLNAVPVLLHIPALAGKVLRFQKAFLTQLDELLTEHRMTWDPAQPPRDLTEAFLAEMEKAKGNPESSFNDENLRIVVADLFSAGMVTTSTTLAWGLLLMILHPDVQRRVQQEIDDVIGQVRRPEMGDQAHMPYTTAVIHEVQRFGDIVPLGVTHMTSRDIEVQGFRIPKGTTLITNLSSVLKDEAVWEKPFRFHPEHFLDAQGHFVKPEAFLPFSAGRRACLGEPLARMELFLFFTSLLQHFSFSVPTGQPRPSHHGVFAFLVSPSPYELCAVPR"}, "[27]": {"experiment": "Vero E6 cell cytotoxicity, dose response, cytotoxicity control for non-replicating M. tuberculosis project, secondary assay (AID 492998)", "assay_type": "functional, VeroE6", "conditions": "Vero C1008"}, "[28]": {"system": "BJ", "experiment": "cells", "assay_type": "functional, cell-based", "conditions": "Homo sapiens"}, "[29]": {"experiment": "luciferase reporter signal suppression in cells – H4 neuroglioma cells, luminescence, dose response (AID 1990)", "assay_type": "functional, cell-based"}, "[30]": {"experiment": "alpha-synuclein stem-loop luciferase translation blockers – H4 neuroglioma cells, luminescence, confirmation (AID 1988)", "assay_type": "functional, cell-based"}}, "note": "Activity calls are given as the source filed them."}
{"compound": "Cc1nc(N2CCC(C)CC2)c2oc3ccccc3c2n1", "values": [{"measurement": "EC50", "setting": "[1]", "value": "109 µM (active)"}, {"measurement": "CC50", "setting": "[2]", "value": "> 40 µM (active)"}, {"measurement": "EC50", "setting": "[3]", "value": "> 112 µM (not active)"}, {"measurement": "IC50", "setting": "[4]", "value": "5.77 µM (active)"}, {"measurement": "IC50", "setting": "[5]", "value": "7.23 µM (active)"}]}
{"compound": "CCCCCCC1=Cc2cc(OC)c(OC)cc2C(C(C(C)=O)C(=O)OC)O1", "note": "(stereo unspecified)", "values": [{"measurement": "AC50", "setting": "[6]", "value": "3.16 µM (inconclusive)"}]}
{"compound": "O=C(CN(C(=O)c1ccc(Cl)cc1)N1C(=O)C2CCCCC2C1=O)c1ccc(Cl)cc1", "note": "(stereo unspecified)", "values": [{"measurement": "EC50", "setting": "[7]", "value": "18 µM (active)"}]}
{"compound": "COC(=O)c1c(CSc2cccc(C)c2)noc1C(=O)NCc1ccco1", "values": [{"measurement": "CC50", "setting": "[8]", "value": "> 40 µM (active)"}]}
{"compound": "C(#CC1C=CC2OC(c3ccccc3)OCC2O1)c1ccccc1", "note": "(stereo unspecified)", "values": [{"measurement": "AC50", "setting": "[6]", "value": "2.51 µM (inconclusive)"}]}
{"compound": "CC(C)c1ccc(Nc2nnc(SC3CCOC3=O)s2)cc1", "note": "(stereo unspecified)", "values": [{"measurement": "EC50", "setting": "[7]", "value": "7.37 µM (active)"}]}
{"compound": "Cn1c(/C=C/c2ccc([N+](=O)[O-])o2)nc2ccccc2c1=O", "values": [{"measurement": "AC50", "setting": "[9]", "value": "7 µM (active)"}, {"measurement": "EC50", "setting": "[10]", "value": "> 120 µM (not active)"}, {"measurement": "EC50", "setting": "[11]", "value": "2.75 µM (inconclusive)"}, {"measurement": "EC50", "setting": "[12]", "value": "3.02 µM (active)"}, {"measurement": "CC50", "setting": "[13]", "value": "1.44 µM (active)"}, {"measurement": "AC50", "setting": "[14]", "value": "25.1 µM (inconclusive)"}, {"measurement": "EC50", "setting": "[15]", "value": "> 260 µM (inconclusive)"}, {"measurement": "IC50", "setting": "[16]", "value": "0.78 µM (active)"}, {"measurement": "AC50", "setting": "[17]", "value": "2.37 µM (active)"}, {"measurement": "AC50", "setting": "[18]", "value": "2.55 µM (active)"}, {"measurement": "AC50", "setting": "[19]", "value": "5 µM (active)"}, {"measurement": "EC50", "setting": "[20]", "value": "1.35 µM (active)"}, {"measurement": "EC50", "setting": "[21]", "value": "4.06 µM (active)"}, {"measurement": "CC50", "setting": "[22]", "value": "2.67 µM (active)"}, {"measurement": "EC50", "setting": "[23]", "value": "< 0.059 µM (active)"}, {"measurement": "EC50", "setting": "[24]", "value": "< 0.059 µM (active)"}, {"measurement": "AC50", "setting": "[25]", "value": "10.6 µM (active)"}, {"measurement": "AC50", "setting": "[26]", "value": "17.8 µM (inconclusive)"}, {"measurement": "CC50", "setting": "[27]", "value": "6.22 µM (active)"}, {"measurement": "EC50", "setting": "[28]", "value": "3.51 µM (inconclusive)"}, {"measurement": "EC50", "setting": "[29]", "value": "> 120 µM (not active)"}, {"measurement": "EC50", "setting": "[30]", "value": "> 120 µM (not active)"}]}
{"compound": "O=C(COC(=O)c1ccc(-c2ccccc2)cc1)Nc1ccccc1-c1ccccc1", "values": [{"measurement": "IC50", "setting": "[4]", "value": "6.97 µM (active)"}, {"measurement": "IC50", "setting": "[5]", "value": "5.72 µM (active)"}]}
{"compound": "O=C(O)CSc1nnc(-c2ccc3c(c2)OCO3)o1", "values": [{"measurement": "IC50", "setting": "[4]", "value": "> 35 µM (not active)"}, {"measurement": "IC50", "setting": "[5]", "value": "> 35 µM (not active)"}]}
